In ChEMBL document CHEMBL6103583, “Purified Monascus Pigments: Biological Activities and Mechanisms of Action” (J Nat Prod, 2025):
≈ marks a conversion by molar mass, not a printed value.

Columns and labels:
[1] = system: WiDr; assay: Antiproliferative activity against human WiDr cells assessed as reduction in cell growth incubated for 3 days by MTT assay; assay type: functional, cell-based; conditions: 72 h
[2] = system: HEp-2; assay: Antiproliferative activity against human HEp-2 cells assessed as reduction in cell growth incubated for 3 days by MTT assay; assay type: functional, cell-based; conditions: HEp-2, 72 h
[3] = system: HEp-2; assay: Antiproliferative activity against human HEp-2 cells assessed as reduction in cell viability incubated for 72 hrs by MTT assay; assay type: functional, cell-based; conditions: HEp-2, 72 h
[4] = system: WiDr; assay: Antiproliferative activity against human WiDr cells assessed as reduction in cell viability incubated for 72 hrs by MTT assay; assay type: functional, cell-based
[5] = system: RAW264.7; assay: Antiinflammatory activity against mouse RAW264.7 cells assessed as inhibition of LPS-NO production incubated for 24 hrs by Griess reagent based assay; assay type: functional, cell-based; conditions: RAW264.7, 24 h
[6] = system: LNCaP; assay: Antiproliferative activity against human LNCaP cells assessed as reduction in cell viability incubated for 48 hrs by MTT assay; assay type: functional, cell-based
[7] = system: PC-3; assay: Antiproliferative activity against human PC-3 cells assessed as reduction in cell viability incubated for 48 hrs by MTT assay; assay type: functional, cell-based; conditions: PC-3, 48 h
[8] = system: RAW264.7; assay: Antiinflammatory activity against mouse RAW264.7 cells assessed as inhibition of LPS-NO production by Griess reagent based assay; assay type: functional, cell-based
[9] = system: Aspergillus niger; assay: Antifungal activity against Aspergillus niger KCCM 11239 assessed as reduction in […] incubated for 12 hrs by micro-dilution method; assay type: functional
[10] = system: Escherichia coli; assay: Antibacterial activity against Escherichia coli KCCM 11234 assessed as reduction in bacterial growth incubated; assay type: functional
[11] = system: Enterococcus faecalis; assay: Antibacterial activity against Enterococcus faecalis KCCM 11814 assessed as reduction in bacterial growth incubated for 12 hrs by broth micro-dilution method; assay type: functional
[12] = system: Bacillus subtilis; assay: Antibacterial activity against Bacillus subtilis KCCM 11316 assessed as reduction in bacterial growth incubated for 12 hrs by broth micro-dilution method; assay type: functional
[13] = system: Escherichia coli; assay: Antibacterial activity against Escherichia coli KCCM 11234 assessed as reduction in bacterial growth incubated for 12 hrs by broth micro-dilution method; assay type: functional
[14] = system: Staphylococcus aureus; assay: Antibacterial activity against Staphylococcus aureus KCCM 11817 assessed as reduction in bacterial growth incubated for 12 hrs by broth micro-dilution method; assay type: functional
[15] = system: Pseudomonas aeruginosa; assay: Antibacterial activity against Pseudomonas aeruginosa KCCM 11328 assessed as reduction in bacterial growth incubated for 12 hrs by micro-dilution method; assay type: functional
[16] = system: Staphylococcus aureus; assay: Antibacterial activity against Staphylococcus aureus […] assessed as reduction in bacterial growth incubated for 12 hrs by broth micro-dilution method; assay type: functional
[17] = Antibacterial activity against Salmonella choleraesuis KCCM 11806 assessed as reduction in bacterial growth; assay type: functional, Salmonella enterica subsp. enterica serovar Choleraesuis; conditions: Salmonella enterica
[18] = system: Penicillium citrinum; assay: Antifungal activity against Penicillium citrinum KCCM 11663 assessed as reduction in […] incubated for 12 hrs by micro-dilution method; assay type: functional
[19] = system: Klebsiella aerogenes; assay: Antibacterial activity against Enterobacter aerogenes KCCM 12177 assessed as reduction in bacterial growth incubated for 12 hrs by broth micro-dilution method; assay type: functional
[20] = system: Salmonella typhimurium; assay: Antibacterial activity against Salmonella Typhimurium KCCM 11806 assessed as reduction in bacterial growth incubated for 12 hrs by micro-dilution method; assay type: functional, Salmonella enterica subsp. enterica serovar Typhimurium; conditions: Salmonella enterica
[21] = system: Candida albicans; assay: Antifungal activity against Candida albicans KCCM 10231 assessed as reduction in […] incubated for 12 hrs by micro-dilution method; assay type: functional
[22] = system: Penicillium digitatum; assay: Antifungal activity against Penicillium digitatum KCCM 60140 assessed as reduction in […] incubated for 12 hrs by micro-dilution method; assay type: functional
[23] = system: Shigella sonnei; assay: Antibacterial activity against Shigella sonnei KCCM 40253 assessed as reduction in bacterial growth incubated for 12 hrs by micro-dilution method; assay type: functional
[24] = system: Proteus vulgaris; assay: Antibacterial activity against Proteus vulgaris KCCM 11906 assessed as reduction in bacterial growth incubated for 12 hrs by broth micro-dilution method; assay type: functional
[25] = system: Haemophilus influenzae; assay: Antibacterial activity against Haemophilus influenzae KCCM 11903 assessed as reduction in bacterial growth incubated for 12 hrs by broth micro-dilution method; assay type: functional
[26] = system: Escherichia coli; assay: Antibacterial activity against Escherichia coli assessed as reduction in bacterial growth by broth microdilution method; assay type: functional

CCCCCC(=O)C[C@@H]1CC(CC(=O)CCC)=C(C)C(=O)[C@]1(C)O
IC50 [1]: 142 µM
IC50 [2]: 124 µM

C/C=C/C1=CC2=CC3=C(C(=O)CCCCCCC)C(=O)O[C@@]3(C)[C@@H](O)C2=CO1
IC50 [3]: 9.8 µM
IC50 [4]: 8.6 µM
IC50 [5]: 0.99 µM

C/C=C/c1cc2c(cn1)C(=O)[C@](C)(O)[C@@H](CC(=O)CCCCCCC)C2
IC50 [5]: 74.7 µM

C/C=C/C1=CC2=C(CO1)C(=O)[C@]1(C)OC(=O)[C@H](C(O)CCCCC)[C@H]1C2 (some centres not stated)
IC50 [6]: 45 µM
IC50 [7]: 47 µM

C/C=C/C1=CC2=C(CO1)C(=O)[C@](C)(O)[C@@H](CC(=O)CCCCCCC)C2
IC50 [8]: 19.7 µM
IC50 [1]: 55.8 µM
IC50 [2]: 21 µM

C/C=C/C1=CC2=CC3=C(C(=O)CCCCC)C(=O)OC3(C)C(=O)C2=CN1CCO (configuration not stated)
IC50 [5]: 27.5 µM

C/C=C/C1=CC2=CC3=C(C(=O)CCCCCCC)C(=O)O[C@@]3(C)C(=O)C2=CO1
IC50 [3]: 55.9 µM
IC50 [4]: 54.1 µM
IC50 [5]: > 39.2 µM

N[C@@H](CS)C(=O)O [CYSTEINE]
MIC [9]: 8 µg/mL (≈ 66 µM)
MIC [10]: 64 µg/mL (≈ 528 µM)
MIC [11]: 4 µg/mL (≈ 33 µM)
MIC [12]: 32 µg/mL (≈ 264 µM)
MIC [13]: 64 µg/mL (≈ 528 µM)
MIC [14]: 16 µg/mL (≈ 132 µM)
MIC [15]: 16 µg/mL (≈ 132 µM)
MIC [16]: 16 µg/mL (≈ 132 µM)
MIC [17]: 16 µg/mL (≈ 132 µM)
MIC [18]: 32 µg/mL (≈ 264 µM)
MIC [19]: 8 µg/mL (≈ 66 µM)
MIC [20]: 8 µg/mL (≈ 66 µM)
MIC [21]: 16 µg/mL (≈ 132 µM)
MIC [22]: 32 µg/mL (≈ 264 µM)
MIC [23]: 16 µg/mL (≈ 132 µM)
MIC [24]: 8 µg/mL (≈ 66 µM)
MIC [25]: 8 µg/mL (≈ 66 µM)

N[C@H](Cc1ccccc1)C(=O)O [D-PHENYLALANINE]
MIC [9]: 8 µg/mL (≈ 48.4 µM)
MIC [10]: 8 µg/mL (≈ 48.4 µM)
MIC [11]: 8 µg/mL (≈ 48.4 µM)
MIC [12]: 8 µg/mL (≈ 48.4 µM)
MIC [13]: 8 µg/mL (≈ 48.4 µM)
MIC [14]: 16 µg/mL (≈ 96.9 µM)
MIC [15]: 16 µg/mL (≈ 96.9 µM)
MIC [16]: 8 µg/mL (≈ 48.4 µM)
MIC [17]: 4 µg/mL (≈ 24.2 µM)
MIC [18]: 8 µg/mL (≈ 48.4 µM)
MIC [19]: 16 µg/mL (≈ 96.9 µM)
MIC [20]: 8 µg/mL (≈ 48.4 µM)
MIC [21]: 8 µg/mL (≈ 48.4 µM)
MIC [22]: 16 µg/mL (≈ 96.9 µM)
MIC [23]: 16 µg/mL (≈ 96.9 µM)
MIC [24]: 16 µg/mL (≈ 96.9 µM)
MIC [25]: 16 µg/mL (≈ 96.9 µM)

N[C@@H](Cc1ccccc1)C(=O)O [PHENYLALANINE]
MIC [9]: 8 µg/mL (≈ 48.4 µM)
MIC [10]: 8 µg/mL (≈ 48.4 µM)
MIC [11]: 4 µg/mL (≈ 24.2 µM)
MIC [12]: 8 µg/mL (≈ 48.4 µM)
MIC [13]: 8 µg/mL (≈ 48.4 µM)
MIC [14]: 16 µg/mL (≈ 96.9 µM)
MIC [15]: 8 µg/mL (≈ 48.4 µM)
MIC [16]: 8 µg/mL (≈ 48.4 µM)
MIC [17]: 8 µg/mL (≈ 48.4 µM)
MIC [26]: 16 µg/mL (≈ 96.9 µM)
MIC [18]: 8 µg/mL (≈ 48.4 µM)
MIC [19]: 16 µg/mL (≈ 96.9 µM)
MIC [20]: 4 µg/mL (≈ 24.2 µM)
MIC [21]: 8 µg/mL (≈ 48.4 µM)
MIC [22]: 16 µg/mL (≈ 96.9 µM)
MIC [23]: 16 µg/mL (≈ 96.9 µM)
MIC [24]: 16 µg/mL (≈ 96.9 µM)
MIC [25]: 16 µg/mL (≈ 96.9 µM)

N[C@@H](Cc1ccc(O)cc1)C(=O)O [TYROSINE]
MIC [9]: 4 µg/mL (≈ 22.1 µM)
MIC [11]: 8 µg/mL (≈ 44.2 µM)
MIC [12]: 4 µg/mL (≈ 22.1 µM)
MIC [14]: 8 µg/mL (≈ 44.2 µM)
MIC [15]: 8 µg/mL (≈ 44.2 µM)
MIC [16]: 8 µg/mL (≈ 44.2 µM)
MIC [17]: 8 µg/mL (≈ 44.2 µM)
MIC [18]: 8 µg/mL (≈ 44.2 µM)
MIC [19]: 4 µg/mL (≈ 22.1 µM)
MIC [20]: 16 µg/mL (≈ 88.3 µM)
MIC [21]: 8 µg/mL (≈ 44.2 µM)
MIC [22]: 32 µg/mL (≈ 177 µM)
MIC [23]: 32 µg/mL (≈ 177 µM)
MIC [24]: 32 µg/mL (≈ 177 µM)
MIC [25]: 32 µg/mL (≈ 177 µM)
